Measurements reported in article PMC8929364, “Metopimazine is primarily metabolized by a liver amidase in humans” (Pharmacology Research & Perspectives, 2021).
Several values for one entry are separate records, joined by “and”; a condition that tells them apart may be missing. Equal entries are not always repeated. One block for each molecule: values may come before it.

Tests used:
[1] = tested on: microsomal CYP enzymes; assay: HLM incubation of MPZ with CYP inhibitors; conditions: HLM 0.5 mg/ml, 60 min; for effect of inhibitor on MPZS formation from MPZ / effect of inhibitor on MPZH formation from MPZ (peak area ratio, qualitative): 1 mM ABT; for effect of inhibitor on MPZS formation from MPZ: itraconazole 2.5 µM; for effect of inhibitor on MPZH formation from MPZ (peak area ratio, qualitative): quinidine 1 µM
Procedure: Initially, two sets of incubations were conducted with HLM (0.5 mg/ml microsomal protein), 1 and 10 μM MPZ, 100 mM KPi buffer (pH 7.4) where one set was in the presence and the other set was in the absence of 1 mM ABT, a non‐specific CYP inhibitor for 60 min. This allowed the assessment of total CYP contribution for MPZ metabolism. Then, CYP‐specific chemical inhibitors were used to assess the contribution of individual major CYP‐isoforms where HLM were incubated with 1 or 10 μM MPZ in the presence and in the absence of each CYP specific inhibitor at 37°C for 60 min. […] Parallel incubation with seven CYP specific probe substrates (phenacetin for CYP1A2, bupropion for CYP2B6, paclitaxel for CYP2C8, diclofenac for CYP2C9, S‐mephenytoin for CYP2C19, dextromethorphan for CYP2D6 and midazolam for CYP3A4/5) were included in as positive controls. For negative control reaction, MPZ was incubated at 37°C in duplicate in a reaction mixture devoid of NADPH. All other procedures were the same as described previously.
LC separation conditions were developed for MPZ and its metabolites (MPZA and MPZS), 7‐hydroxycoumarin, each metabolite of CYP probe substrate, benzydamine N‐oxide, and phthalazine. The LC–MS/MS system consisted of a Shimadzu Nexera X2 LC‐30 UPLC system (Shimadzu Corporation), and an API 4000 triple quadrupole mass spectrometer (SCIEX) was used for analysis. All analytes were analyzed using electrospray ionization (ESI) in positive ion mode except for 7‐EC, which used negative ion mode. The LC–MS/MS system was controlled by Analyst software (version 1.6.1, SCIEX).
For each analytical method, a calibration curve was generated for the quantification of MPZ and its two metabolites (MPZA and MPZS). […] PAR was also used for all positive control compounds.

[2] = tested on: human liver microsomal amidase; assay: Incubations with heat-treated HLM for microsomal hydrolase/amidase activity, with and without BNPP; type: in vitro ADME; conditions: 10 µM MPZ, HLM, 60 min
Procedure: Prior to the reaction for amidase activity, the reaction mixture containing KPi buffer (pH 7.4, 8.4, or 9.4) and HLM was pre‐incubated at 50°C for 5 min to inactivate CYP and FMO activities in HLM. The mixture was placed on ice to cool down. An aliquot was taken out which was considered as t = 0 min incubation. Then 10 µM MPZ was added into the remaining mixture and incubated at 37°C on an orbital shaker for 60 min. A parallel set of incubations was conducted with 10 µM MPZ in the presence at 2 and 16 µM, of BNPP (a known inhibitor of amidase). All reactions were in triplicate. The total percentage of organic solvent in the incubation mixture was ≤0.1%. The reactions were terminated by the addition of chilled acetonitrile: methanol, 90:10, (v/v). The samples were vortex‐mixed and stored at ≤−70°C and were subjected analyzed by LC–MS/MS.

[3] = target: T1, CYP3A5 (Homo sapiens, UniProt P20815); assay: Incubation of MPZ with recombinant CYP isoforms: CYP3A5; type: in vitro ADME; conditions: 1 µM MPZ, 60 min
T1 construct: purchased Corning Inc
T1 sequence (P20815 whole entry, canonical isoform): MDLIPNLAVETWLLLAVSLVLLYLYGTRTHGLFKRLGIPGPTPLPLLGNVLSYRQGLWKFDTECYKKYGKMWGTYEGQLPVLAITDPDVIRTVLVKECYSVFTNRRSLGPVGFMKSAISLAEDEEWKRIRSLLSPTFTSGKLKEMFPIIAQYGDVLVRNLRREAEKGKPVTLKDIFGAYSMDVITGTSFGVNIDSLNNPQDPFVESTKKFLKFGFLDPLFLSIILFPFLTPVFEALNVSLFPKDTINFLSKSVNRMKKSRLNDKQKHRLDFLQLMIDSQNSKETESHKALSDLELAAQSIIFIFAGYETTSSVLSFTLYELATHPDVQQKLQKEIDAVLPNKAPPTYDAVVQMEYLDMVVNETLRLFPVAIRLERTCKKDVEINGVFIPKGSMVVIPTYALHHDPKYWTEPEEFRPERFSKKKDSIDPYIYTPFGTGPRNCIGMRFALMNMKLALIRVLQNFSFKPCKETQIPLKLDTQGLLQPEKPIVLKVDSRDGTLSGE
Description: (§1) All other procedures were the same as described previously.

[4] = target: T2, CYP3A4 (Homo sapiens, UniProt P08684); assay: Incubation of MPZ with recombinant CYP isoforms: CYP3A4; type: in vitro ADME; conditions: 1 µM MPZ, 60 min
T2 construct: purchased Corning Inc
T2 sequence (P08684 whole entry, canonical isoform): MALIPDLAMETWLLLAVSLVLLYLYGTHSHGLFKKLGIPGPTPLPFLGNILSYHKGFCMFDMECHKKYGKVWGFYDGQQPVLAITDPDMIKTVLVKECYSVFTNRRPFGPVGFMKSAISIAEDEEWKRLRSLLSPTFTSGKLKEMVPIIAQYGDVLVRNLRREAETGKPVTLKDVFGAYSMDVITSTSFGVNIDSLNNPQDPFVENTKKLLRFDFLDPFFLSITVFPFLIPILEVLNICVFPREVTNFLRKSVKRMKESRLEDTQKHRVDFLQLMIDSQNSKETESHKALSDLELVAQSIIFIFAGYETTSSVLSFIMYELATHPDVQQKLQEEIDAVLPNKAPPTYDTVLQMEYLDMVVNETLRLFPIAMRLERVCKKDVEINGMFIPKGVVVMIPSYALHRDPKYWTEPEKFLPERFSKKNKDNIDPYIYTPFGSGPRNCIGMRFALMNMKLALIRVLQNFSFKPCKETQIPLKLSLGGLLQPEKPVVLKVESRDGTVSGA
Description: as §1

[5] = Clinical study NG100-101: plasma pharmacokinetics of metopimazine and metabolites after a single oral 60 mg dose; type: in vivo, healthy adult subjects (human); conditions: for % Drug‐related material MPZS: based on AUClast
Procedure: The clinical study was conducted at Biotrial Rennes, in accordance with the Declaration of Helsinki. The study (NG100‐101) was a double‐blind, placebo‐ controlled, ascending single‐ and multiple‐dose study of the safety, tolerability, and pharmacokinetics of metopimazine administered orally to healthy adult subjects. The study protocol, informed consent form, and appropriate related documents were approved by the institutional review board, and all subjects provided written informed consent prior to participation in the study. […] In the morning, after at least 10 h of fasting overnight, eight healthy adult subjects (male or female aged 18 to 45), were orally administered metopimazine (or a matching placebo). […] Blood samples were collected at the following time points: predose and 0.25, 0.5, 0.75, 1, 1.25, 1.5, 2, 3, 4, 6, 8, 12, 18, and 24 h postdose; plasma samples were obtained by centrifugation of the blood samples. A comprehensive safety and pharmacokinetic analysis was performed for each cohort for the SAD and MAD parts of the study and will be presented elsewhere. A fit‐for‐purpose discovery method was used to analyze 4 subjects from the highest single dosed cohort for the presence of metabolites. Plasma concentrations of metopimazine, metopimazine acid and metopimazine sulfoxide were quantified using LC–MS/MS methods. Venous blood samples (6 ml) for the determination of plasma concentrations of MPZ and metabolites (MPZA and MPZS) were drawn by direct venipuncture or via an intravenous catheter into K2EDTA Vacutainer® tubes. It was important to avoid hemolysis during blood collection. After collection, the blood samples were centrifuged within 60 min, at 3000 rotations per minute for 10 min at 5°C. The resulting plasma was separated into 2 equal aliquots of 1000 µl (aliquots A & B) and transferred to polypropylene tubes, which were labeled, frozen within 120 min of blood collection and stored at –70°C until required for bioanalysis. Immediately prior to bioanalysis, samples were thawed and a 200 µl aliquots were removed and analytes extracted using acetonitrile protein precipitation. The extracted samples were analyzed twice, once for quantification of MPZ and MPZA and again for MPZS quantification as described below. An MRM LC–MS/MS method was developed for MPZ and metopimazine acid (MPZA) in rat, dog, and human plasma. The method was run in reverse phase in positive ion mode. […] D6‐isotopically labeled internal standards were used for each analyte. The following m/z transitions were monitored: metopimazine 446.3 → 141.1 and metopimazine acid 447.2 → 142.1. […] An MRM LC–MS/MS method was developed to look for metopimazine sulfoxide (MPZS) in human plasma. The method was run in reverse phase in positive ion mode. The system was identical to what was described above except that a slightly longer column was used, a Supelco Discovery HS F5 100 × 4.0 mm (3 µm) column (Sigma‐Aldrich). A D6‐isotopically labeled internal standards was used for MPS and the m/z transition monitored was 462.3 → 98.1. A calibration curve was generated for the quantification of MPZS in human plasma. Noncompartmental Pharmacokinetics analysis was performed in Phoenix 64 Winnonlin version 8.1.

[6] = Incubation of MPZ with pooled human liver microsomes (disappearance, metabolite formation); type: in vitro ADME; conditions: metopimazine incubation in human liver microsomes, full scan LC–MS
Procedure: To conduct the metabolic incubation in liver microsomes in the linear range, protein concentration and the reaction time were optimized.
PAR was also used for all positive control compounds.
The degree of disappearance of each analyte was evaluated by comparing the PAR of analyte to IS or concentration in different sampling time points to the PAR of time zero, (t = 0, 100%). The percent of parent remaining values were calculated according to the following equation: %parentremaining=(meanconcentrationorPARateachsamplingtimepoint/meanconcentrationorPARoftimezero)×100

[7] = tested on: microsomal FMOs; assay: Incubation of MPZ with HLM for FMO, with and without methimazole; type: in vitro ADME, human; conditions: 1 mM methimazole, pH 8.4, NADPH, 60 min
Procedure: MPZ, at 1.0 and 10.0 µM, was incubated with HLM or HKM to determine the contribution of microsomal FMOs on the metabolism of MPZ.
A reaction mixture containing KPi buffer (pH 8.4), HLM or HKM (0.5 mg/ml protein) and MPZ (1.0 and 10.0 µM) was pre‐incubated for 3–5 min at 37°C. The reaction was initiated by the addition of NADPH into the reaction mixture. The reaction was conducted for 0 and 60 min. A positive control (benzydamine, 100 µM) was incubated in duplicate for 0 and 20 min. Parallel incubation was conducted by adding 1 mM methimazole, a non‐specific FMO inhibitor, under identical conditions. Heat‐inactivated microsomes (50°C for at least 5 min) was incubated under identical conditions negative control. All other procedures were the same as described previously.

[8] = 4 subjects, single oral 60 mg MPZ dose
[9] = plasma, individual subjects, single oral 60 mg MPZ dose

SMILES: O=[N+]([O-])c1ccc(OP(=O)(O)Oc2ccc([N+](=O)[O-])cc2)cc1 [BNPP, bis‐p‐nitrophenyl phosphate]
- inhibition of MPZA formation ([2]; 2 μM BNPP, even at the highest pH): at least 97%
- inhibition of MPZA formation ([2]; 16 μM BNPP, all three pH values (7.4, 8.4, 9.4)): > 99%

SMILES: CS(=O)(=O)c1ccc2c(c1)N(CCCN1CCC(C(N)=O)CC1)c1ccccc1[S+]2[O-] (stereo not shown) [MPZS, metopimazine sulfoxide]
- metabolite formation by recombinant CYP3A5 [3]: not CYP3A5
- metabolite formation by recombinant CYP3A4 [4]: mainly produced by CYP3A4
- quantifiability in plasma at late time points [5, 8]: not quantifiable by 12 h
- time of first appearance in plasma [5, 8]: 30 to 45 min
- % Drug‐related material MPZS ([5]; individual subjects, single 60 mg dose): 0.4% and 0.9% and 0.5% and 0.8%
- % Drug‐related material MPZS ([5]; mean of 4 subjects, single 60 mg dose): 0.7%
- AUC(0-t) ([5]; both sexes, human, plasma, po, 60 mg, plasma, mean of 4 subjects, single oral 60 mg MPZ dose, read-out: MPZS AUClast): 15.8 ng·h/mL
- Cmax ([5]; both sexes, human, plasma, po, 60 mg, plasma, mean of 4 subjects, single oral 60 mg MPZ dose, read-out: MPZS C max): 4.9 ng/mL
- MPZS AUClast [5, 9]: 7.6 ng‐h/ml and 25.5 ng‐h/ml and 10.0 ng‐h/ml and 20.1 ng‐h/ml
- MPZS C max [5, 9]: 1.6 ng/mL and 10.2 ng/mL and 3.1 ng/mL and 4.6 ng/mL
- MPZS T max [5, 9]: 4 h and 1.25 h and 1 h
- percent of total circulating drug‐related material ([5]; rough estimate based on AUClast, single 60 mg dose): less than 1%
- Peak area at time 0 [6]: 0
- Peak area at time 90 min [6]: 59

SMILES: C=C[C@H]1C[N@@]2CC[C@H]1C[C@@H]2[C@@H](O)c1ccnc2ccc(OC)cc12 [quinidine]
- effect of inhibitor on MPZH formation from MPZ (peak area ratio, qualitative) [1]: inhibited

Continued, values first:

- effect of inhibitor on MPZA formation from MPZ ([1]; 1 mM ABT or CYP-isoform specific inhibitors): no effect on MPZA
- effect of inhibitor on MPZS formation from MPZ [1]: inhibited the formation of MPZS
- effect of inhibitor on MPZH formation from MPZ (peak area ratio, qualitative) [1]: inhibited
SMILES: Nn1nnc2ccccc21 [1‐ABT, 1‐aminobenzotriazole]

- effect of inhibitor on MPZS formation from MPZ [1]: clearly inhibited
SMILES: CCC(C)n1ncn(-c2ccc(N3CCN(c4ccc(OCC5COC(Cn6cncn6)(c6ccc(Cl)cc6Cl)O5)cc4)CC3)cc2)c1=O (stereo not shown) [itraconazole]

- effect of FMO inhibitor on MPZA formation in HLM [7]: not inhibited
SMILES: Cn1cc[nH]c1=S [methimazole]
